Experiment: Acid dissociation constant (pKa) by acid-base titration
Assay type: physicochemical
Conditions: purified water; titration with 0.1 N perchloric acid-acetic acid solution, 25±2° C.
Description: In the present description, the acid dissociation constant of the amine compound (a) is a value obtained by the following measurement method based on an acid-base titration method. • (1) Dissolving 0.2 g of the amine compound (a) in 30 mL of purified water. • (2) Calculating the acid dissociation constant (pKa) by titrating the solution obtained in the above (1) with 0.1 N perchloric acid-acetic acid solution using an automatic potentiometric titrator (for example, AT-610 produced by Kyoto Electronics Manufacturing Co., Ltd.).
Still, let a temperature at a time of measurement be 25±2° C.
The acid dissociation constant of the amine compound (a) was determined by the following method. • (1) Dissolving 0.2 g of the amine compound (a) in 30 mL of the purified water. • (2) Calculating the acid dissociation constant (pKa) by titrating the solution obtained in the above (1) with the 0.1 N perchloric acid-acetic acid solution using the automatic potentiometric titrator (AT-610 produced by Kyoto Electronics Manufacturing Co., Ltd.).
Still, let the temperature at the time of measurement be 25±2° C.

SMILES: NCC1CCCC(CN)C1 (stereo not shown) [1,3-BAC, 1,3-bis(aminomethyl)cyclohexane]
- pKa: 10.8

Source: US20240198287A1, “CARBON DIOXIDE RECOVERING METHOD AND CARBON DIOXIDE RECOVERING DEVICE” (MITSUBISHI GAS CHEMICAL COMPANY, INC., priority 2021, published 2024)
